Key:
[1] = target: A. niger Fdc^UbiX (A. niger Fdc1) (Aspergillus niger, UniProt A2QHE5); assay: UV-Vis and activity, reversible inhibition; type: biochemical; conditions: prFMN-loaded enzyme
[2] = target: Aspergillus niger Fdc1 (Aspergillus niger) (UniProt A2QHE5); assay: native MS

| Compound | UV-Vis and activity, reversible inhibition [1] | stoichiometry N [2] |
| --- | --- | --- |
| O=CCc1ccccc1 [phenylacetaldehyde] | incubation with phenylpyruvate or phenylacetaldehyde leads to reversible enzyme inhibition |  |
| Aspergillus niger Fdc1 (from UniProt A2QHE5 1-500) (enzyme) |  | 2 |

From article PMC4988494 (Nature, 2015)
